Measurements published in ChEMBL document CHEMBL4118226, “Discovery of Highly Isoform Selective Orally Bioavailable Phosphoinositide 3-Kinase (PI3K)-γ Inhibitors” (J Med Chem, 2018).

Legend:
[1] = Lipophilicity, log D of the compound at pH 7.4; assay type: physicochemical; details: buffer
[2] = Intrinsic clearance in rat hepatocytes assessed as per million cells; assay type: ADME, cell-based, Hepatocyte; details: read-out: CLH
[3] = Intrinsic clearance in human hepatocytes assessed as per million cells; assay type: ADME, cell-based, Hepatocyte; details: read-out: CLH
[4] = Oral bioavailability in dog; assay type: ADME, organism-based, Canis lupus familiaris; details: in vivo
[5] = Clearance in rat; assay type: ADME, organism-based; details: in vivo
[6] = Half life in rat; assay type: ADME, organism-based; details: in vivo
[7] = Volume of distribution at steady state in dog; assay type: ADME, organism-based, Canis lupus familiaris; details: in vivo, read-out: Vdss
[8] = Volume of distribution at steady state in rat; assay type: ADME, organism-based; details: in vivo, read-out: Vdss
[9] = Clearance in dog; assay type: ADME, organism-based, Canis lupus familiaris; details: in vivo
[10] = Intrinsic clearance in dog hepatocytes assessed as per million cells; assay type: ADME, cell-based, Canis lupus familiaris, Hepatocyte; details: read-out: CLH
[11] = Oral bioavailability in rat; assay type: ADME, organism-based; details: in vivo
[12] = Half life in dog; assay type: ADME, organism-based, Canis lupus familiaris; details: in vivo

Structure (SMILES): CC(=O)Nc1nc(C)c(-c2cc3c(c(S(N)(=O)=O)c2)C(=O)N([C@@H](C)C2CC2)C3)s1
- logD [1]: 2.5
- hepatocyte CLint [2]: < 2 µL/min/1e6 cells

Structure (SMILES): CC(=O)Nc1nc(C)c(-c2cc3c(c(S(=O)(=O)CCCO)c2)C(=O)N([C@@H](C)C2CC2)C3)s1
- logD [1]: 1.9
- hepatocyte CLint [2]: 6 µL/min/1e6 cells

Structure (SMILES): CNS(=O)(=O)c1cc(-c2sc(NC(C)=O)nc2C)cc2c1C(=O)N([C@@H](C)C1CC1)C2
- hepatocyte CLint [3]: 0.5 µL/min/1e6 cells
- bioavailability [4]: 44%
- clearance [5]: 4.4 mL/min/kg
- half-life [6]: 2.6 h
- logD [1]: 3
- Vd [7]: 2.2 L/kg
- Vd [8]: 1 L/kg
- hepatocyte CLint [2]: 4.5 to 5 µL/min/1e6 cells
- clearance [9]: 2.1 mL/min/kg
- hepatocyte CLint [10]: 2.1 µL/min/1e6 cells
- bioavailability [11]: 30%
- half-life [12]: 12 h

Structure (SMILES): COCCS(=O)(=O)Nc1cc(-c2sc(NC(C)=O)nc2C)cc2c1C(=O)N([C@@H](C)C1CC1)C2
- logD [1]: 3.5
- hepatocyte CLint [2]: 166 µL/min/1e6 cells

Structure (SMILES): CC(=O)Nc1nc(C)c(-c2cc(Cl)c3c(c2)CN([C@@H](C)C2CC2)C3=O)s1
- logD [1]: 3.9
- hepatocyte CLint [2]: 3 µL/min/1e6 cells

Structure (SMILES): CC(=O)Nc1ncc(-c2cc(Cl)c3c(c2)CN([C@@H](C)C2CC2)C3=O)s1
- logD [1]: 3.8
- hepatocyte CLint [2]: 2 µL/min/1e6 cells

Structure (SMILES): CC(=O)Nc1nc(C)c(-c2cc3c(c(NS(C)(=O)=O)c2)C(=O)N([C@@H](C)C2CC2)C3)s1
- hepatocyte CLint [3]: 3.4 µL/min/1e6 cells
- bioavailability [4]: 1.6%
- clearance [5]: 0.7 mL/min/kg
- half-life [6]: 6.7 h
- logD [1]: 3.3
- Vd [7]: 0.7 L/kg
- Vd [8]: 0.4 L/kg
- hepatocyte CLint [2]: 3.7 to 4 µL/min/1e6 cells
- clearance [9]: 6.2 mL/min/kg
- hepatocyte CLint [10]: 7.6 µL/min/1e6 cells
- bioavailability [11]: 49%
- half-life [12]: 1.3 h

Structure (SMILES): C[C@@H](C1CC1)N1Cc2cc(-c3cnc(N)nc3)cc(Cl)c2C1=O
- logD [1]: 2.6
- hepatocyte CLint [2]: 2 µL/min/1e6 cells

Structure (SMILES): Cc1cc(-c2cnc3[nH]ccc3n2)cc2c1C(=O)N([C@@H](C)C1CC1)C2
- logD [1]: 4.3
- hepatocyte CLint [2]: 146 µL/min/1e6 cells

Structure (SMILES): Cc1cc(-c2nccnc2N)cc2c1C(=O)N([C@@H](C)C1CC1)C2
- logD [1]: 2.6
- hepatocyte CLint [2]: 43 µL/min/1e6 cells

Structure (SMILES): COCCNS(=O)(=O)c1cc(-c2sc(NC(C)=O)nc2C)cc2c1C(=O)N([C@@H](C)C1CC1)C2
- logD [1]: 2.7
- hepatocyte CLint [2]: 56 µL/min/1e6 cells

Structure (SMILES): CNC(=O)c1nc(-c2cc(C)c3c(c2)CN([C@@H](C)C2CC2)C3=O)cnc1N
- logD [1]: 3.8
- hepatocyte CLint [2]: 4 µL/min/1e6 cells

Structure (SMILES): CC(=O)Nc1nc(C)c(-c2cc(Cl)c3c(c2)CN([C@H](C)C2CC2)C3=O)s1
- logD [1]: 3.9
- hepatocyte CLint [2]: 6 µL/min/1e6 cells

Structure (SMILES): CC(=O)Nc1nc(C)c(-c2cc3c(c(S(C)(=O)=O)c2)C(=O)N([C@@H](C)C2CC2)C3)s1
- hepatocyte CLint [3]: 0.4 µL/min/1e6 cells
- clearance [5]: 6.3 mL/min/kg
- half-life [6]: 2.3 h
- logD [1]: 2.4
- Vd [7]: 1.1 L/kg
- Vd [8]: 1.2 L/kg
- hepatocyte CLint [2]: 1.7 to 2 µL/min/1e6 cells
- hepatocyte CLint [10]: 1 µL/min/1e6 cells
- bioavailability [11]: 51%
- half-life [12]: 3.9 h

Structure (SMILES): CC(=O)Nc1nc(C)c(-c2cc(C)c3c(c2)CN([C@@H](C)C2CC2)C3=O)s1
- logD [1]: 4.3
- hepatocyte CLint [2]: 11 µL/min/1e6 cells
